{"source": "patent US12617818B2", "about": "“Compositions and methods for modulating myosin subfragment-2 coiled coil stability and methods for using them” (UNIVERSITY OF NORTH TEXAS, priority 2020, dated 2026)", "key": {"[1]": {"target": "T1, human cardiac myosin S2 peptide (Homo sapiens, UniProt P12883)", "T1 construct": "The 19 residue peptide was chemically synthesized", "assay": "Competitive ELISA (cELISA) against polyclonal anti-S2 antibody", "assay_type": "binding", "conditions": "curve fit of OD vs peptide concentration; read-out: binding efficiency (Kd) to human cardiac myosin S2 peptide", "experimental": "Phosphate buffer saline (PBS) contained 0.14 M sodium chloride, 2.7 mM potassium chloride, 1.5 mM potassium phosphate monobasic, and 8.1 mM sodium phosphate dibasic with pH 7.4. Detergent buffer was made with 0.05% triton X-100 in PBS, blocking buffer was made with 3% powdered milk in detergent buffer. Assay buffer contained 100 mM potassium phosphate dibasic, 100 mM potassium phosphate monobasic, 1 M potassium chloride and 10 mM magnesium chloride with pH 7.0. Stocks of primary antibody (polyclonal antibody anti-S2), rabbit skeletal myosin, human cardiac myosin S2 peptide, stabilizer and destabilizer peptide. Secondary antibody conjugated with alkaline phosphatase was anti-guinea pig immunoglobulin G (IgG)-alkaline phosphatase (Sigma-Aldrich, catalog number A5062) produced in goat and isolated by affinity chromatography. Substrate was 5-Bromo-4-chloro-3-indolyl phosphate (BCIP) tablets dissolved in 10 ml of distilled water per tablet and 96 well microtiter plate.\nCompetitive Enzyme Linked Immunosorbent Assay (cELISA) is a classical immunochemical test to validate the binding efficiency and specificity in lower molar concentrations (Yorde et al., 1976; Voller et al., 1978; Walker, J. M. 1996). In this assay the polyclonal antibody anti-S2 raised against single alpha helix of myosin S2 would be used to compete with stabilizer or destabilizer peptide to bind myosin S2 in rabbit skeletal myosin molecule as well as small human cardiac myosin S2 peptide. This cELISA, thus have two molecules polyclonal anti-S2 and stabilizer peptide which have two binding sites one on rabbit skeletal myosin and the other one being on small human cardiac myosin S2. Since both polyclonal anti-S2 and stabilizer peptide were designed against human β-cardiac myosin S2 they both would have a stronger affinity towards the smaller human β-cardiac myosin S2 peptide against the myosin S2 on rabbit skeletal myosin.\nTo test the binding specificity and efficiency of stabilizer or destabilizer peptide the following setup was used. Start of the setup would be to coat the wells with rabbit skeletal myosin molecule and add appropriate amount human cardiac myosin S2 peptide that would bind the primary polyclonal anti-S2 antibody and when washed there won't be enough primary polyclonal anti-S2 antibody to bind myosin S2 of rabbit skeletal myosin adsorbed on the wells. When alkaline phosphatase conjugated secondary antibody is added on to the wells, it won't have enough or none primary polyclonal anti-S2 antibody to bind. After addition of color developing BCIP substrate to the wells it would lead to low or no color development leading to lower optical density (OD). […]"}, "[2]": {"target": "T2, smooth muscle myosin S2 peptide (MYH11) (Homo sapiens, UniProt P35749)", "T2 construct": "A 21 residue peptide of the S2 region of MYH11 was matched to the previously synthesized S2 peptide; host or cells: chemical synthesis", "assay": "FRET of smooth muscle myosin S2 peptide dimer with anti-S2 peptides", "assay_type": "binding", "conditions": "control, no anti-S2 peptide; read-out: Dissociation Constant (Kd) of S2 peptide dimer", "excerpt": "Human smooth muscle myosin heavy chain (MYH11) is a part of the non-striated muscle. This gene can be found within esophagus, endometrium, duodenum, etc. A 21 residue peptide of the S2 region of MYH11 was matched to the previously synthesized S2 peptide of cardiac isoform and chemically synthesized 926-946. Generated amino acid sequence used is as follow: • Smooth: NH2-[…]—COOH (SEQ ID NO:11)\nResonance energy probes (donor and acceptor) were covalently attached to synthetic myosin S2 peptides of cardiac muscle, E930del cardiac muscle, E924K cardiac muscle, smooth muscle, and skeletal muscle (Aboonasrshiraz, N., 2020).\nAcceptor probe was conjugated to muscle myosin S2 peptides at N-terminus. Muscle myosin S2 peptides were dissolved in 20 mM HEPES buffer at pH 8.0. And FITC was dissolved in few drops of N, N dimethyl formamide. Lastly, FITC and muscle myosin S2 peptide was reacted together in 1 to 1 molar ratio and was let to react for 120 minutes at room temperature. […]\nIn FRET assay, Fluorescein Isothiocyanate (FITC) functioned as fluorescent acceptor probe and Terbium Diethylene Triamine Pentaacetic Acid-Cytosine (Lanthanide-DTPA-Cytosine) functioned as donor probe. […] Lifetime of donor probe was measured in milliseconds.\nThe specificity of peptides were later tested on the myosin S2 of the smooth muscle (MYH11). […] Calculated separation distance in presence of the stabilizer peptide was 3.34 nm."}, "[3]": {"target": "T3, cardiac muscle myosin S2 peptide (MYH7) (Homo sapiens, UniProt P12883)", "T3 construct": "host or cells: chemical synthesis", "T3 sequence (P12883 912-947 limits assumed)": "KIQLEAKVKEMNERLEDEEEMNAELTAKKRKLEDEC", "assay": "Gravitational force spectroscopy (GFS), uncoiling of cardiac myosin S2 peptide dimer", "assay_type": "biochemical", "conditions": "length 10 nm, absence of anti-S2 peptides, ± SEM", "excerpt": "(§1) 3-aminopropyltriethoxysilane, acetone, coupling buffer (0.01 M pyridine in water with pH 6.0), 5% glutaraldehyde, quenching solution (1 M glycine in water with pH 7.0), blocking buffer (0.01 M Tris, 0.1% sodium azide, 0.1% bovine serum albumin, 0.15 M sodium chloride, and 0.001 M ethylenediaminetetraacetic acid with pH 7.0), wash buffer (0.01 M Tris, 0.1% sodium azide, 0.15 M sodium chloride, and 0.001 M ethylenediaminetetraacetic acid with pH 7.0) low salt buffer (0.1 M potassium chloride, 0.02 M imidazole, 5 mM magnesium chloride, with pH 7.0), 1-ethyl-3-(3-dimethyaminopropyl) carbodiimide, N-hydroxysuccinamide, iodoacetamide-succinimidyl ester, 8M urea solution (50 mM imidazole and 0.1 mM tris (2-carboxyethyl) phosphine with pH 7.0) monodisperse silica beads, glass slides, glass coverslips, vacuum grease, rabbit skeletal myosin, purified actin (G-actin), 1 μM human β-cardiac myosin S2 peptide, 1 μM human β-cardiac mutants myosin S2 peptide (E930del and E924K), 1 μM human skeletal myosin S2 peptide, 1 μM human smooth myosin S2 peptide, stabilizer peptide, and destabilizer peptide. A light microscope with an objective lens of 10× was mounted on an alt-azimuthal mount. A digital video camera of Sony, XCD-V60 was replaced with the ocular lenses. Extension springs on steel bracket held the alt-azimuthal mount suspended.\n(§2) Gravitational force spectroscopy (GFS), is a single molecule force spectroscopy that utilizes gravitational force to measure absolute length of a single molecule at the given force calculated by the density of the bead suspending the molecule. This technique was discovered and developed in Root lab, which measures the forces in piconewton and sub-piconewton levels. Other than absolute length of a molecule, GFS measures force range required to uncoil, stretch or extend the molecule yielding a force-distance profile for the suspended molecule. Besides that, based on the force-distance profile, number of amino acids within the molecule can be calculated. […] The GFS allowed to test the flexibility or stability of a single molecule of myosin S2 peptide and also for the S2 peptides treated with anti-S2 peptides. Flexibility of myosin S2 is not dependent on assembly myosin as a thick filament or myosin in its single molecule form. The flexibility of myosin S2 region was reported to be similar in single molecule form or myosin in a thick filament assembly thus it could be conceived that the changes seen on flexibility of myosin S2 in presence of anti-S2 peptides would correlate to changes in myosin S2 flexibility for myosin in a thick filament form (Singh et al., 2018). The schematic diagram of GFS is shown below (schematic diagrams of GFS which has two modes: (FIG. 15) free-fall mode, (FIG. 16) rotational mode.\nGFS set up assembly contains a light microscope that is horizontally mounted on an alt-azimuthal which is suspended with help of extension springs on a steel bracket. To capture both images and videos of suspended molecule, a digital video camera has been placed instead of the ocular lenses. The molecule of interest is tethered between an immobile edge of glass coverslip placed on a glass slide and mobile silica or glass bead. Slide with the molecule of interest in inserted into the light microscope component of GFS. The bead with molecule of interest is imaged through the microscope and then oriented to the direction of gravity vector to allow the maximal gravitation force exerted on to the bead. GFS has two modes, one is called rotational mode or an equilibrium mode which measures the absolute length of a single molecule and the second one is called free fall mode which measures the force required to unwind, uncoil, stretch or extend the molecule of interest.\nFree fall mode, another measurement variant of GFS which allows the user to get a force distance profile on a single molecule experiencing the gravitational force. […]"}, "[4]": {"tested_on": "primary polyclonal anti-S2 antibody", "assay": "cELISA of human cardiac myosin S2 peptide against rabbit skeletal myosin S2 for antibody", "assay_type": "binding", "conditions": "antibody diluted 1:64", "experimental": "To evaluate the amount of cardiac myosin S2 peptide that would compete with rabbit skeletal myosin S2 to bind primary polyclonal anti-S2 antibody, the microtiter plate was coated with rabbit skeletal myosin first to that was added two fold dilutions of human cardiac myosin S2 peptide from 1000 nanomolar (nM) to 1 nM. Following this 1:64 diluted primary polyclonal antibody was added. After the washing step, secondary antibody is added followed by BCIP and development of color or OD was recorded and the video was analyzed by Image J. The OD will decrease as the concentration of human cardiac myosin S2 increases. […] The minimum amount of human cardiac myosin S2 peptide that would bind primary polyclonal anti-S2 antibody was at 62.5 nM (FIG. 36). Such a high binding efficiency was expected, since primary polyclonal anti-S2 antibody was raised against the same human cardiac myosin S2."}, "[5]": {"target": "T4, cardiac muscle myosin S2 peptide E930del (MYH7 E930del) (Homo sapiens, UniProt P12883, DEL931-931)", "T4 construct": "host or cells: chemical synthesis", "T4 sequence (P12883 with tags, fused parts or gaps DEL931-931)": "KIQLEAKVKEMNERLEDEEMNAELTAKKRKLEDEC", "assay": "GFS, uncoiling of E930del cardiac myosin S2 peptide dimer", "assay_type": "biochemical", "conditions": "for Force required to uncoil S2 molecule: length 10 nm, absence of stabilizer, ± SEM", "excerpt": "as §1\nas §2, with “The flexibility of myosin S2 region was reported to be similar in single molecule form or myosin in a thick filament assembly thus it could be conceived that the changes seen on flexibility of myosin S2 in presence of anti-S2 peptides would correlate to changes in myosin S2 flexibility for myosin in a thick filament form (Singh et al., 2018). The schematic diagram of GFS is shown below (schematic diagrams of GFS which has two modes: (FIG. 15) free-fall mode, (FIG. 16) rotational mode.” left out\nFree fall mode, another measurement variant of GFS which allows the user to get a force distance profile on a single molecule experiencing the gravitational force. […] During the free fall mode, GFS has a single molecule which is suspended within an immobile edge and mobile bead will now experience the variable force which would be calculated by the product of mass of the bead and the acceleration of the GFS. […]"}, "[6]": {"target": "skeletal muscle myosin S2 peptide (MYH2) (Homo sapiens, UniProt Q9UKX2)", "sequence (Q9UKX2 918-953 limits assumed)": "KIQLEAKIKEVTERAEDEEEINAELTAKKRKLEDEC", "assay": "GFS, uncoiling of skeletal myosin S2 peptide dimer", "assay_type": "biochemical", "set-up": "host or cells: chemical synthesis", "conditions": "length 10 nm, absence of anti-S2 peptides, ± SEM", "excerpt": "as §1, §2\nFree fall mode, another measurement variant of GFS which allows the user to get a force distance profile on a single molecule experiencing the gravitational force. Free fall mode allows a variable force by the virtue of gravity to be exerted on a single molecule. The GFS setup, light microscope with mounted camera on spring on alt-azimuthal platform, can be dropped. The start of free-fall mode force applied to the bead is zero or close to zero. […] As the platform goes towards equilibrium, trace of the acceleration decays. During the free fall mode, GFS has a single molecule which is suspended within an immobile edge and mobile bead will now experience the variable force which would be calculated by the product of mass of the bead and the acceleration of the GFS.\nThe product of the GFS acceleration and the mass of the bead will provide a force trace for the single molecule tethered between the immobile edge and mobile bead. The image processing would provide distance trace for the single molecule experiencing the free fall by the GFS. When this force trace is aligned with distance trace will yield the extension or the stretch experience by the single molecule under variable forces. […]"}}, "note": "Several values for one entry are separate records, joined by “and”; a condition that tells them apart may be missing. Equal entries are not always repeated."}
{"molecule": "C[C@H](NC(=O)[C@H](CCCCN)NC(=O)[C@H](Cc1ccccc1)NC(=O)[C@H](CCCCN)NC(=O)[C@H](CCCCN)NC(=O)[C@H](CCCCN)NC(=O)[C@H](CCCCN)NC(=O)[C@H](CCCCN)NC(=O)[C@H](CCCCN)NC(=O)[C@H](CCCCN)NC(=O)[C@@H](N)CCCCN)C(=O)N[C@@H](CCCCN)C(=O)N[C@@H](CCCCN)C(=O)N[C@@H](CCCCN)C(=O)N[C@@H](CCCCN)C(=O)N[C@@H](CCCCN)C(=O)N[C@@H](CCCCN)C(=O)O", "note": "[stabilizer peptide]", "values": [{"measurement": "Kd", "setting": "[1]", "result": "1.37 nM and 1.38 nM"}]}
{"molecule": "H-EMEARLEEEEDRGQQLQAERK-OH [Smooth Myosin S2, reference compound]", "values": [{"measurement": "Kd", "setting": "[2]", "result": 302, "unit": "nM"}]}
{"molecule": "H-EMNERLEDEEEMNAELTAK-OH [Cardiac Myosin S2, reference compound]", "values": [{"measurement": "Force required to uncoil S2 molecule", "setting": "[3]", "result": "8.63E−01 ± 7.45E−02", "unit": "pN"}, {"measurement": "Force required to uncoil S2 molecule", "setting": "[3]; listed as cardiac muscle myosin S2", "result": "8.63×10^−1±7.45×10^−2 pN"}, {"measurement": "minimum amount that would bind primary polyclonal anti-S2 antibody", "setting": "[4]", "result": 62.5, "unit": "nM"}]}
{"molecule": "H-EMNERLEDEEMNAELTAK-OH [Cardiac Myosin S2 Mutant, E930del]", "values": [{"measurement": "Force required to uncoil S2 molecule", "setting": "[5]", "result": "4.11E−01 ± 2.97E−02", "unit": "pN"}, {"measurement": "Force required to uncoil S2 molecule", "setting": "[5]; listed as E930del", "result": "4.11×10^−1±2.97×10^−2 pN"}, {"measurement": "mechanical instability compared to wild type cardiac muscle myosin S2", "setting": "[5]; no anti-S2 peptide", "result": 2.10, "unit": "times"}]}
{"molecule": "H-EVTERAEDEEEINAELTAK-OH [Skeletal Myosin S2, reference compound]", "values": [{"measurement": "Force required to uncoil S2 molecule", "setting": "[6]", "result": "4.50E−01 ± 5.56E−02", "unit": "pN"}, {"measurement": "Force required to uncoil S2 molecule", "setting": "[6]; listed as skeletal muscle myosin S2", "result": "4.50×10^−1±5.56×10^−2 pN"}]}
